Test results as given in patent US10301352B2, “Peptidomimetics with antiangiogenic activity” (UNIWERSYTET WARSZAWSKI, priority 2013, dated 2019).
Non-standard residues stand in square brackets, D forms with d. Residues, ends and D or L forms follow the SMILES beside them. No end group written: not given here. ξ: configuration not given here. hArg = N=C(N)NCCCC[C@H](N)C(=O)O; Dab = NCC[C@H](N)C(=O)O; Dap = NC[C@H](N)C(=O)O; ξP = O=C(O)C1CCCN1

Experiments:
NRP-1 = molecular target: T1, NRP-1 (Rattus norvegicus, UniProt Q9QWJ9); test: VEGF165 displacement assay (inhibition of VEGF165 to NRP-1 binding); conditions: biotinylated VEGF165 1 nM; for inhibition at 0.03 µM: compound 0.03 μM; for inhibition at 0.1 µM: compound 0.1 μM; for inhibition at 0.3 µM: compound 0.3 μM; for inhibition at 1 µM: compound 1 μM
T1 construct: purchased R&D Systems
Procedure: Antiangiogenic properties were evaluated in vitro by measuring the inhibition of VEGF165 to NRP-1 binding. This test makes it possible to evaluate the % inhibition by the evaluated compound at a particular concentration.
The evaluation of the inhibitory effect of peptidomimetics were performed using an enzymatic method denoting the spectrophotometric displacement of the VEGF165 ligand from a bond with the specific receptor Neuropilin-1 by the evaluated compound. The studies were performed using polystyrene 96-well plates (Maxisorb, Nunc.).
To evaluate the biological inhibitory activity of selected molecules, the surfaces of flat bottom polystyrene wells of 96-wells plates (Maxisorb, Nunc,) was treated with 100 ul of 2 ug/ml anti-Fc IgG (Sigma-Aldrich, Saint Quentin Fallavier, France) in phosphate buffer saline (PBS, Sigma) overnight at 4° C. After washing and saturation of non-specific interactions with bovine serum albumin (BSA, Sigma), purified recombinant rat NRP1-Fc (20 ng/well, R&D Systems, Abingdon, UK) in 50 μl PBS-BSA 0.1%-tween-80 0.005% (PBT), […] VEGF165 (final concentration 1 nM, R&D Systems) diluted in PBT containing 2 μg/ml of heparin (Sigma) were successively added to a final volume of 150 μl. After an overnight incubation at 4° C., the wells were washed with PBT and treated with streptavidin-HRP polymer (Sigma) followed by washing and addition of ABTS substrate (Sigma). The DO measures were performed at 415 nm in reference to 470 nm after 15 minutes-2 h of reaction. […] In the control wells, the tested compound was absent but the respective concentration of DMSO was maintained. The heptapeptide A7R (ATWLPPR) was routinely used as a positive control for each plate.

[1] = In vitro peptidomimetic stability in human plasma (LC/MS); assay type: in vitro ADME; conditions: 37° C.; for half-life at 0.35 μmol/mL: human plasma from healthy donors, TFA salt, read-out: half-life time; for main enzymatic cleavage / degradation products: human plasma
Procedure: The stability of two peptidomimetics: Lys(hArg)-Dap-Pro-Arg and Lys(hArg-Pro-Dab-Arg were tested in plasma samples obtained from healthy donors. Peptidomimetics stock solutions were prepared by dissolving the TFA salt of proper peptidomimetic in water to obtain a final peptidomimetic concentration of 0.7 μmol/mL. In a Eppendorf tube, samples of 100 μL of human plasma were temperature-equilibrated at 37° C. for 15 minutes before adding 100 μL of peptidomimetic stock solution. Three tubes allowed the analysis for each time point. The initial time was recorded and at known time intervals (every 10 minutes from 0 sec to 3 h), 400 μL of solution of TCA in 99.8% ethanol (CTCA=0.2%) was added to the reaction solution for precipitation of the serum proteins. The cloudy reaction sample was shaken and then spun at 2000 g to pellet the precipitated serum proteins. The reaction supernatant was then analyzed by LC/MS analysis (using a RP-HPLC-ESI-MS system).

T1 sequence (Q9QWJ9 with tags, fused parts or gaps limits assumed): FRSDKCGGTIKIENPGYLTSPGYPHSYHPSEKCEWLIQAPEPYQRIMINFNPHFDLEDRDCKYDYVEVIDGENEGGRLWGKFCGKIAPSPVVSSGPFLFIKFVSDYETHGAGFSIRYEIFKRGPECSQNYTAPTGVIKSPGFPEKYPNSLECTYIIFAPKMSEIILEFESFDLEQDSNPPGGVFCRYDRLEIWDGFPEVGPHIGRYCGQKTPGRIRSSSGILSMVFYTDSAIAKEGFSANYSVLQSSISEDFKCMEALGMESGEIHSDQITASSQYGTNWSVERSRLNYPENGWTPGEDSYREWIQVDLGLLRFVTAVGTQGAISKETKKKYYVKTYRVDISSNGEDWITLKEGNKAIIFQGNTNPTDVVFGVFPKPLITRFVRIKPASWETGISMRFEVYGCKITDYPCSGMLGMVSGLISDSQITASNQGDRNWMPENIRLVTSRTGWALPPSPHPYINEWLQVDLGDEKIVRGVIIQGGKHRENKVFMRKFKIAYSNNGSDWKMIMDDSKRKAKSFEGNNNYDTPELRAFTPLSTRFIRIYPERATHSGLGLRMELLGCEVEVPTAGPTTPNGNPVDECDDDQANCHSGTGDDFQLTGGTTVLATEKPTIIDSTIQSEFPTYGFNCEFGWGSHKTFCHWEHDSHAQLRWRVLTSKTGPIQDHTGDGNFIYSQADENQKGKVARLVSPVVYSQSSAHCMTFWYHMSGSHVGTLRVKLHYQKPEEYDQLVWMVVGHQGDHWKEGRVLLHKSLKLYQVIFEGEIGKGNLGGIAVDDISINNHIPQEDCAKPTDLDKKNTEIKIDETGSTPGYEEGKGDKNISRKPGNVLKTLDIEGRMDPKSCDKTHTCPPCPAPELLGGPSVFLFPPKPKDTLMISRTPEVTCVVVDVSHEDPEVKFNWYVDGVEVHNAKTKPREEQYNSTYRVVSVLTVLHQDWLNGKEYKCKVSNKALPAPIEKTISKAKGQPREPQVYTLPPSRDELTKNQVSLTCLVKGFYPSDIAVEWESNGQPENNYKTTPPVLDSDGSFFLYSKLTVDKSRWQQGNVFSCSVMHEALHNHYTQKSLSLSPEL

inhibition at 0.03 µM (NRP-1) [%]	inhibition at 0.1 µM (NRP-1) [%]	inhibition at 0.3 µM (NRP-1) [%]	inhibition at 1 µM (NRP-1) [%]	inhibition at 3 µM (NRP-1; compound 3 μM) [%]	inhibition at 10 µM (NRP-1; compound 10 μM) [%]	inhibition at 30 µM (NRP-1; compound 30 μM) [%]	half-life at 0.35 μmol/mL [1] [h]	main enzymatic cleavage / degradation products [1]	Compound	% inhibition of VEGF165 to NRP-1 binding (NRP-1; compound 3 μM) [%]	% inhibition of VEGF165 to NRP-1 binding (NRP-1; compound 10 μM) [%]	% inhibition of VEGF165 to NRP-1 binding (NRP-1; compound 30 μM) [%]
13.7	35.4	62.2	82.6	93.6	98.3	100	0.667	to Lys(hArg)-Pro and Dab-Arg	N=C(N)NCCCC[C@H](N)C(=O)NCCCC[C@H](N)C(=O)N1CCCC1C(=O)N[C@@H](CCN)C(=O)N[C@@H](CCCNC(=N)N)C(=O)O (stereo partly drawn) [compound 2, Lys(hArg)-Pro-Dab-Arg] (H-K(hArg)[ξP][Dab]R-OH)			
11.6	33	59.4	82	93.4	96.8	99.7	~2.33	between the first and second residue	N=C(N)NCCCC[C@H](N)C(=O)NCCCC[C@H](N)C(=O)N[C@@H](CN)C(=O)N1CCC[C@H]1C(=O)N[C@@H](CCCNC(=N)N)C(=O)O [compound 3, Lys(hArg)-Dap-Pro-Arg] (H-K(hArg)[Dap]PR-OH)			
	21.6	47.8	82.4	91.4	98.5	100			N=C(N)NCCCC[C@H](N)C(=O)NCCCC[C@H](N)C(=O)N[C@@H](CCN)C(=O)N1CCC[C@H]1C(=O)N[C@@H](CCCNC(=N)N)C(=O)O [compound 4, Lys(hArg)-Dab-Pro-Arg] (H-K(hArg)[Dab]PR-OH)			
									ATWLPPR [A7R, reference compound]	61.2	76.9	85.5
